According to patent publication US20260166159A1, “KRAS G12D DEGRADATION AGENT, AND PREPARATION METHOD AND USE THEREFOR” (LEADINGTAC PHARMACEUTICAL (SHAOXING) CO., LTD., priority 2022, published 2026):

How the values were obtained:
[1] = system: KRAS G12D mutant human gastric cancer cell AGS; test: 3D cell proliferation inhibition assay, AGS; type: cell-based; conditions: 168 h, 7 days, CTG
Summary of the method: (§1)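 Cells were seeded at 5×10^2 cells/well in low-adsorption plates with compound (10000–0.026 nM final, 0.2% DMSO) and grown for 7 days at 37 °C, 5% CO2. Viability was read by CTG luminescence after 60 min at room temperature. IC50 came from log concentration–inhibition curve fits, normalised to DMSO and medium-only controls.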

[2] = system: KRAS G12D mutant human lung cancer cell A427; test: 3D cell proliferation inhibition assay, A427; type: cell-based; conditions: A-427, 168 h, A427, 7 days, CTG
Summary of the method: as §1

[3] = molecular target: T1, Human KRAS G12D 6His-tagged (Homo sapiens, UniProt P01116, G12D); test: KRAS-G12D/GTP binding assay (HTRF)
T1 construct: purchased PerkinElmer
Summary of the method: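 HTRF kit format: 6His-tagged KRAS G12D incubated with compound (final 0.02-5000 nM, 0.5% DMSO), anti-6His Eu cryptate antibody and GTP Red reagent for 1 h at 25° C. 665/620 nm ratio versus control gave inhibition rates; IC50 by nonlinear fit.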

[4] = system: phosphorylated ERK; test: KRAS G12D-mediated phosphorylated ERK inhibition assay (AlphaLISA), A427; type: cell-based; conditions: Homo sapiens, A-427; A427 cells; class symbols; read-out: pERK (A427) IC50
Procedure: The relative amounts of phosphorylated ERK and total ERK in the samples were separately determined according to the test methods provided in the instructions of the AlphaLISA SureFire Ultra p-ERK 1/2 (Thr202/Tyr204) kit (PerkinElmer) and the AlphaLISA SureFire Ultra TotalERK 1/2 kit (PerkinElmer).
The experimental procedures for the assay of the phosphorylated ERK and total ERK were as follows: 10 μL of each sample was added to a 384-well plate (Greiner), and 5 μL of the prepared Acceptor Beads (PerkinElmer) mixed solution (containing 50× Acceptor Beads 615, Activation Buffer, and equal volumes of Reaction Buffer 1 and Reaction Buffer 2) was added to each well; and the plate was incubated at room temperature for 2 h. Then 5 μL of 1× Donor Beads (PerkinElmer) diluted with Dilution Buffer was added to each well, and the plate was incubated at room temperature overnight. After the incubation was completed, AlphaLISA signal values for the phosphorylated ERK and total ERK were separately measured on an EnVision microplate reader (PerkinElmer) in the AlphaScreen standard mode. The following formula was adopted: phosphorylated ERK correction value=phosphorylated ERK AlphaLISA signal value/total ERK AlphaLISA signal value. The relative ratio of the phosphorylated ERK for each sample was calculated. The percentage inhibition rates of the compounds on the phosphorylated ERK at each concentration were calculated by comparing the relative value of the phosphorylated ERK with that of the DMSO control well. Then non-linear curve fittings for logarithmic concentration-inhibition rate were performed by the GraphPad Prism 8 analysis software, and the IC50 values of the compounds on the inhibition of the phosphorylated ERK were obtained (Table 2).

T1 sequence (P01116 1-188 isoform P01116-2 G12D): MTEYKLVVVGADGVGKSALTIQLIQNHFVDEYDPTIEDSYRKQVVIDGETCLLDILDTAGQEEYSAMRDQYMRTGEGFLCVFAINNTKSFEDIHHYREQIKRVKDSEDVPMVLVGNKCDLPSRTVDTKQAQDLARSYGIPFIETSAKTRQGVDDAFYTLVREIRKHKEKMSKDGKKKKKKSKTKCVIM

| Compound | IC50 ([1]; class symbols) [nM] | IC50 ([2]; class symbols) [nM] | IC50 ([3]; class symbols) [nM] | IC50 [4] [nM] | IC50 ([1]; numeric values) [nM] | IC50 ([2]; numeric values) [nM] | IC50 ([3]; numeric values) [nM] |
| --- | --- | --- | --- | --- | --- | --- | --- |
| CCc1c(F)ccc2cc(O)cc(-c3ncc4c(N5CC6CCC(C5)N6)nc(OCC5(CN6CCN(CCCC7CCN(C(=O)c8ccc(Cl)c(N9CCC(=O)NC9=O)c8)CC7)CC6)CC5)nc4c3F)c12 [Example 22, 1-(5-(4-(3-(4-((1-(((4-(3,8-diazabicyclo[3.2.1]octan-3-yl)-7-(8-ethyl-7-fluoro-3-hydroxynaphthalen-1-yl)-8-fluoropyrido[4,3-d]pyrimidin-2-yl)oxy)methyl)cyclopropyl)methyl)piperazin-1-yl)propyl)piperidine-1-carbonyl)-2-chlorophenyl)dihydropyrimidine-2,4(1H,3H)-dione] | ≤ 50 | 50 to 100 | ≤ 50 | ≤ 50 | – | – | – |
| C#Cc1c(F)ccc2cc(O)cc(-c3ncc4c(N5CC6CCC(C5)N6)nc(OCC5(CN6CCN(CCC7CCN(C(=O)c8ccc(Cl)c(N9CCC(=O)NC9=O)c8)CC7)CC6)CC5)nc4c3F)c12 [Example 3, 1-(5-(4-(2-(4-((1-(((4-(3,8-diazabicyclo[3.2.1]octan-3-yl)-7-(8-ethynyl-7-fluoro-3-hydroxynaphthalen-1-yl)-8-fluoropyrido[4,3-d]pyrimidin-2-yl)oxy)methyl)cyclopropyl)methyl)piperazin-1-yl)ethyl)piperidine-1-carbonyl)-2-chlorophenyl)dihydropyrimidine-2,4(1H,3H)-dione] | ≤ 50 | 1000 to 10000 | ≤ 50 | 50 to 100 | – | – | – |
| CCc1cccc2cc(O)cc(-c3ncc4c(N5CC6CCC(C5)N6)nc(OCC5(CN6CCN(CCCC7CCN(C(=O)c8ccc(Cl)c(N9CCC(=O)NC9=O)c8)CC7)CC6)CC5)nc4c3F)c12 [Example 19, 1-(5-(4-(3-(4-((1-(((4-(3,8-diazabicyclo[3.2.1]octan-3-yl)-7-(8-ethyl-3-hydroxynaphthalen-1-yl)-8-fluoropyrido[4,3-d]pyrimidin-2-yl)oxy)methyl)cyclopropyl)methyl)piperazin-1-yl)propyl)piperidine-1-carbonyl)-2-chlorophenyl)dihydropyrimidine-2,4(1H,3H)-dione] | ≤ 50 | 100 to 500 | ≤ 50 | ≤ 50 | – | – | – |
| C#Cc1c(F)ccc2cc(O)cc(-c3ncc4c(N5CC6CCC(C5)N6)nc(OCC5(CN6CCN(CC7CCC8(CC7)CCN(C(=O)c7ccc(OC)c(N9CCC(=O)NC9=O)c7)CC8)CC6)CCC5)nc4c3F)c12 [Example 25, 1-(5-(9-((4-((1-(((4-(3,8-diazabicyclo[3.2.1]octan-3-yl)-7-(8-ethynyl-7-fluoro-3-hydroxynaphthalen-1-yl)-8-fluoropyrido[4,3-d]pyrimidin-2-yl)oxy)methyl)cyclobutyl)methyl)piperazin-1-yl)methyl)-3-azaspiro[5.5]undecane-3-carbonyl)-2-methoxyphenyl)dihydropyrimidine-2,4(1H,3H)-dione] | – | 100 to 500 | ≤ 50 | 100 to 500 | – | – | – |
| Cc1ccc2[nH]ncc2c1-c1ncc2c(N3CC4CCC(C3)N4)nc(OCC3(CN4CCN(CC5CCC6(CC5)CCN(C(=O)c5ccc(Cl)c(N7CCC(=O)NC7=O)c5)CC6)CC4)CC3)nc2c1F [Example 16, 1-(5-(9-((4-((1-(((4-(3,8-diazabicyclo[3.2.1]octan-3-yl)-8-fluoro-7-(5-methyl-1H-indazol-4-yl)pyrido[4,3-d]pyrimidin-2-yl)oxy)methyl)cyclopropyl)methyl)piperazin-1-yl)methyl)-3-azaspiro[5.5]undecane-3-carbonyl)-2-chlorophenyl)dihydropyrimidine-2,4(1H,3H)-dione] | 1000 to 10000 | 100 to 500 | 1000 to 10000 | 1000 to 10000 | – | – | – |
| C#Cc1c(F)ccc2cc(O)cc(-c3ncc4c(N5CC6CCC(C5)N6)nc(OCC5(CN6CCN(CCCC7CCN(C(=O)c8ccc(OC)c(N9CCC(=O)NC9=O)c8)CC7)CC6)CC5)nc4c3F)c12 [Example 8, 1-(5-(4-(3-(4-((1-(((4-(3,8-diazabicyclo[3.2.1]octan-3-yl)-7-(8-ethynyl-7-fluoro-3-hydroxynaphthalen-1-yl)-8-fluoropyrido[4,3-d]pyrimidin-2-yl)oxy)methyl)cyclopropyl)methyl)piperazin-1-yl)propyl)piperidine-1-carbonyl)-2-methoxyphenyl)dihydropyrimidine-2,4(1H,3H)-dione] | ≤ 50 | 50 to 100 | ≤ 50 | ≤ 50 | – | – | – |
| C#Cc1c(F)ccc2cc(O)cc(-c3ncc4c(N5CC6CCC(C5)N6)nc(OCC5(CN6CCN(CCC7CCC8(CC7)CCN(C(=O)c7ccc(Cl)c(N9CCC(=O)NC9=O)c7)CC8)CC6)CC5)nc4c3F)c12 [Example 18, 1-(5-(9-(2-(4-((1-(((4-(3,8-diazabicyclo[3.2.1]octan-3-yl)-7-(8-ethynyl-7-fluoro-3-hydroxynaphthalen-1-yl)-8-fluoropyrido[4,3-d]pyrimidin-2-yl)oxy)methyl)cyclopropyl)methyl)piperazin-1-yl)ethyl)-3-azaspiro[5.5]undecane-3-carbonyl)-2-chlorophenyl)dihydropyrimidine-2,4(1H,3H)-dione] | ≤ 50 | ≤ 50 | ≤ 50 | ≤ 50 | – | – | – |
| C#Cc1c(F)ccc2cc(O)cc(-c3ncc4c(N5CC6CCC(C5)N6)nc(OCC(C)CN5CCN(CC6CCC7(CC6)CCN(C(=O)c6ccc(OC)c(N8CCC(=O)NC8=O)c6)CC7)CC5)nc4c3F)c12 (stereo not drawn) [Example 84, 1-(5-(9-((4-(3-((4-(3,8-diazabicyclo[3.2.1]octan-3-yl)-7-(8-ethynyl-7-fluoro-3-hydroxynaphthalen-1-yl)-8-fluoropyrido[4,3-d]pyrimidin-2-yl)oxy)-2-methylpropyl)piperazin-1-yl)methyl)-3-azaspiro[5.5]undecane-3-carbonyl)-2-methoxyphenyl)dihydropyrimidine-2,4(1H,3H)-dione] | – | – | – | – | 1.05 | 6.5 | 2.47 |
| C#Cc1cccc2cc(O)cc(-c3ncc4c(N5CC6CCC(C5)N6)nc(OCC5(CN6CCN(CC7CCC8(CC7)CCN(C(=O)c7ccc(Cl)c(N9CCC(=O)NC9=O)c7)CC8)CC6)CC5)nc4c3F)c12 [Example 57, 1-(5-(9-((4-((1-(((4-(3,8-diazabicyclo[3.2.1]octan-3-yl)-7-(8-ethynyl-3-hydroxynaphthalen-1-yl)-8-fluoropyrido[4,3-d]pyrimidin-2-yl)oxy)methyl)cyclopropyl)methyl)piperazin-1-yl)methyl)-3-azaspiro [5.5]undecane-3-carbonyl)-2-chlorophenyl)dihydropyrimidine-2,4(1H,3H)-dione] | ≤ 50 | ≤ 50 | ≤ 50 | – | – | – | – |
| C#Cc1c(F)ccc2cc(O)cc(-c3ccc4c(N5CC6CCC(C5)N6)nc(OCC5(CN6CCN(CC7CCC8(CC7)CCN(C(=O)c7ccc(C)c(N9CCC(=O)NC9=O)c7)CC8)CC6)CC5)nc4c3F)c12 [Example 42, 1-(5-(9-((4-((1-(((4-(3,8-diazabicyclo[3.2.1]octan-3-yl)-7-(8-ethynyl-7-fluoro-3-hydroxynaphthalen-1-yl)-8-fluoroquinazolin-2-yl)oxy)methyl)cyclopropyl)methyl)piperazin-1-yl)methyl)-3-azaspiro[5.5]undecane-3-carbonyl)-2-methylphenyl)dihydropyrimidine-2,4(1H,3H)-dione] | ≤ 50 | ≤ 50 | ≤ 50 | – | – | – | – |
